Laboratory results reported in patent US6855549B1, “Methods and compositions for increasing the infectivity of gene transfer vectors” (The University of Iowa Research Foundation, priority 1998, dated 2005).

Tests used:
lung epithelial layer = test: Fluorescent bead penetration of lung epithelium after EGTA instillation; format: in vivo, rat; details: 3 or 12 mM EGTA, 100 μl into left lobe, one hour
Procedure: Preliminary studies were performed in rats to test the feasibility of using hypotonic solutions with EGTA to increase transepithelial permeability in vivo. 3 wk old rats were tracheotomized and a small caliber PE catheter inserted into the left lobe of the lung. 100 μl of 3 or 12 mM EGTA in water or PBS was mixed with […] fluorescent beads (a marker for viral particles) and instilled into the lungs. One hour later the animals were sacrificed and lung, tissue sections examined under fluorescence microscopy to determine if the fluorescent beads penetrated the epithelial layer. In the PBS control animal, fluorescent particles were only noted in the airway lunen. […] It also was asked if animals treated with EGTA/H2O developed changes in lung morphology. Animals received PBS or 12, 60, or 120 mM EGTA/water into the left lobe of the lung and 1 wk later were sacrificed and H & E stained lung tissues examined.

[1] = tested on: primary cultures of human airway epithelia; test: EGTA dose range for gene transfer on primary cultures of human airway epithelia; format: cell-based; details: MuLV or FIV based retroviruses, MOI 10, range tested 0-96 mM, 4 hrs apical
Procedure: The optimal dose range for EGTA was determined on primary cultures of human airway epithelia Gene transfer efficiency with apical application of MuLV or FIV based retrovirus (MOI 10) or adenovirus (MOI 50) was determined over a range of EGTA concentrations from 0-96 mM. The vectors were diluted 1:1 (vol/vol) with a buffer consisting of water, 10 mM HEPES and the appropriate amount of EGTA. The vector formulation was left on the apical surface of the cells for 4 hrs, then removed. Gene transfer efficiency was evaluated 3 days later by X-gal staining for beta galactosidase expression.

[2] = tested on: rabbit tracheal epithelium; test: Retroviral or adenoviral gene transfer to rabbit tracheal epithelium after EGTA pretreatment; format: in vivo; details: retroviral (MuLV, KGF pretreated) or adenoviral vector, three days
Procedure: Gene transfer to the rabbit tracheal epithelium In Vito. Adult New Zealand white rabbits were anesthetized with 32 mg/kg ketamnine, 5.1 mg/kg xylazine and 0.8 mg/kg acepromazine intramuscularly. Using sterile technique, a ventral midline incision was made, exposing the trachea for tracheotomy. A ˜1.5 cm tracheal segment cephalad to the tracheotomy was isolated, and cannulated on each end with PE 330 tubing (Clay Adams, Becton Dickinson). The tracheal segment was first rinsed and then filled with a solution of 12 mM EGTA in water for 45 min. The EGTA solution was removed, and as replaced with 300 μl of retrovirus (titer 3×10^9 cfu/ml) or adenovirus (titer 1×10^10 pfu/ml) vector. In control animals, saline was substituted for water and EGTA treatment. Animals that received the MuLV retrovirus were pretreated with keratinocyte growth factor (KGF) prior to gene transfer to stimulate epithelial proliferation (˜5 mg/kg intravenously and 600 μg via nasal instillation for 3 doses given 36, 24 and 12 hr preceding the procedure) (Wang et al., 1998; Wang et al., 1999). The vector solution was left in place for an additional 45 min. and then the cannulae were removed, the incisions closed, and animals were allowed to recover. Three days later, animals were sacrificed, and the tissues studied for β-galactosidase expression.

[3] = tested on: human bronchial epithelial cells; format: cell-based
Procedure: Primary human airway epithelial cells were collected by enzymatic digestion of bronchial samples from lung transplants as previously described (Kondo et al., 1991; Zabner et al., 1996). Isolated airway primary cells were seeded at a density of 5×10^5 cells/cm^2 onto collagen-coated Millicell-HA culture inserts (Millipore, Bedford, Mass.). Primary cultures were grown at the air-liquid interface for more than 2 wk, at which time differentiation into a mucociliary epithelium occurs. The culture medium, used to feed only the basolateral side of the cells, contained 49% Dulbecco's modified Eagle's medium (DMEM), 49% Ham's F12, and 2% Ultraser G (BioSepra, Cedex, France).
Recombinant AAV virus was produced by a CaPO4 co-transfection protocol and was purified through three rounds of isopycnic cesium chloride ultracentrifuigation, as previously described (Duan et al., 1997). The proviral plasmid, pCisAV.GFP3ori, was used to generate rAAV (AV.GFP3ori), which encoded the enhanced green fluorescent protein (EGFP) reporter gene under the transcriptional control of the cytomegalovirus (CVM) enhancer/promoter and simian virus 40 (SV40) polyadenylation signal (Duan et al., 1998). Recombinant viral stocks were heated at 58° C. for 60 min to inactivate contaminating helper adenovirus. Typical yields were 1×10^9 particles/μl, determined on the basis of DNA slot-blot hybridization assays against plasmid standards. The level of adenoviral contamination, as based on a second reporter assay for the recombinant adenovirus used for propagation (Ad.CMVAlkphos) (Duane et al., 1997), was less than 1 functional particle per 1×10^10 DNA particles of rAAV. Viral preparations were evaluated for the contamination of wild type AAV (wtAAV) by immunocytochemical staining of AV.GFP3ori/Ad.CMVLacZ (Duan et al., 1998)-coinfected 293 cells with anti-Rep antibodies (American Research Products, Belmont, Mass.). […] Transfection with Rep/Cap-encoding plasmids served as controls for antibody staining of Rep protein. Virus was dialyzed in phosphate-buffered saline (PBS) prior to application on primary airway cultures. […]

O=C(O)CN(CCOCCOCCN(CC(=O)O)CC(=O)O)CC(=O)O [EGTA]
penetration of 100 nM fluorescent beads into epithelial layer (lung epithelial layer): beads were seen throughout the cell layer and close to the basement membrane
EGTA concentration giving greatest gene transfer (percentage of blue cells) [1]: 6 to 12 mM
gene transfer to tracheal epithelium after pretreatment with 12 mM EGTA in water [2]: transduced cells throughout the tracheal epithelium
apical transduction after EGTA, lower than maximal basolateral level [3]: 20 fold
rAAV transduction, EGTA and virus on basolateral side [3]: no significant differences were seen in the extent of rAAV
integrity of the monolayers by light microscopy ([3]; 40 days after hypotonic/EGTA treatment): No significant differences were detected in the integrity of the monolayers
